According to patent US20110172304A1, “Sex Attractant of White Peach Scale and Attraction Method” (Shin-Etsu Chemical Co., Ltd., priority 2010, published 2011):

Key:
[1] = test system: adult males of white peach scale; assay: Field sticky-trap attraction test in a tea field, adult males of white peach scale; type: in vivo, Pseudaulacaspis pnetagona; conditions: number attracted to trap relative to Comparative Example 1 (100% Z isomer) = 100, rubber cap with 0.1 mg in total of Z and E isomers, June 2007
Procedure: (§1) In accordance with the process described in J. Org. Chem. 1980, 45, 2910-2913, (R,Z)-(+)-3,9-dimethyl-6-isopropenyl-3,9-decadienyl propionate, the sex pheromone of white peach scale, was synthesized. The product thus obtained was separated into the Z isomer and the E isomer by using medium-pressure liquid column chromatography. A gray rubber cap (produced by West in US) impregnated with 0.1 mg in total of the Z isomer and the E isomer at a weight ratio of 100:0, 90:10, 80:20, 70:30, 60:40, 50:50, 40:60, 20:80 or 0:100 was used as an attractant for test.
(§2) In the emerging season of first-generation adult males of white peach scale in June, 2007, the attractant described above was attached to a white sticky trap and placed at intervals of 10 m on ridges in a tea field. The numbers of adult males of white peach scale and Thomsonisca amathus, a parasitoid wasp and natural enemy thereof, which had stuck to the sticky plates, was counted every day, respectively.
(§3) When the number of adult males of white peach scale attracted to the trap in Comparative Example 1 comprising an attractant containing 100% of (R,Z)-(+)-3,9-dimethyl-6-isopropenyl-3,9-decadienyl propionate was assigned as 100, the number attracted to each trap was calculated as a relative value. In the attraction test of Thomsonisca amathus, similar data processing was performed.

Thomsonisca amathus = assay: Field sticky-trap attraction test in a tea field, natural-enemy parasitoid wasp; type: in vivo; conditions: number attracted to trap relative to Comparative Example 1 (100% Z isomer) = 100, rubber cap with 0.1 mg in total of Z and E isomers, white sticky trap, June 2007
Procedure: as §1, §2, §3

SMILES | attraction of adult males of white peach scale [1] [%] | attraction of Thomsonisca amathus (Thomsonisca amathus) [%]
C=C(C)CC[C@H](C/C=C(\C)CCOC(=O)CC)C(=C)C [Comp.Ex. 4, (R,E)-(+)-3,9-dimethyl-6-isopropenyl-3,9-decadienyl propionate] | 0.0 | 0.0
C=C(C)CC[C@H](C/C=C(/C)CCOC(=O)CC)C(=C)C [Comp.Ex. 1, (R,Z)-(+)-3,9-dimethyl-6-isopropenyl-3,9-decadienyl propionate] | 100.0 | 100.0
